Results: patent publication US8003785B2 (Takeda Pharmaceutical Company Limited, priority 2008, dated 2011)

Target: T1, PLK1 (Homo sapiens, UniProt P53350)
T1 construct: Full-length, active GST-PLK1 is purified from Sf9 insect cells; made in house; host or cells: Sf9 insect cells
Experiment: Biochemical Characterization Assay: HTRF kinase assay, GST-PLK1 phosphorylation of GST-p53
Conditions: GST-PLK1, GST-p53 substrate
Method: Biochemical Characterization Assay
Full-length, active GST-PLK1 is purified from Sf9 insect cells, and full-length GST-p53 is purified from E. coli. Anti-phospho p53 antibody is from Cell Signaling Technology. Europium-conjugated anti-rabbit antibody is from PerkinElmer Life and Analytical Sciences. APC-conjugated anti-GST antibody is from Prozyme.
Six microliters of GST-PLK1 (3 ug/mL) in Kinase Assay Buffer are then added and the solution incubated at 37° C. for 35 minutes. Six microliters of solution containing 43 mM EDTA to stop the reaction and a 1:600 dilution of anti-phospho-p53 antibody in 20 mM HEPES pH 7, 50 mM NaCl, and 0.5 mg/mL BSA (Antibody Binding Buffer) are added and the solution incubated at 37° C. for 30 minutes. […] The HTRF signal is read on an Envision reader from PerkinElmer Life and Analytical Sciences.

T1 sequence (P53350 whole entry): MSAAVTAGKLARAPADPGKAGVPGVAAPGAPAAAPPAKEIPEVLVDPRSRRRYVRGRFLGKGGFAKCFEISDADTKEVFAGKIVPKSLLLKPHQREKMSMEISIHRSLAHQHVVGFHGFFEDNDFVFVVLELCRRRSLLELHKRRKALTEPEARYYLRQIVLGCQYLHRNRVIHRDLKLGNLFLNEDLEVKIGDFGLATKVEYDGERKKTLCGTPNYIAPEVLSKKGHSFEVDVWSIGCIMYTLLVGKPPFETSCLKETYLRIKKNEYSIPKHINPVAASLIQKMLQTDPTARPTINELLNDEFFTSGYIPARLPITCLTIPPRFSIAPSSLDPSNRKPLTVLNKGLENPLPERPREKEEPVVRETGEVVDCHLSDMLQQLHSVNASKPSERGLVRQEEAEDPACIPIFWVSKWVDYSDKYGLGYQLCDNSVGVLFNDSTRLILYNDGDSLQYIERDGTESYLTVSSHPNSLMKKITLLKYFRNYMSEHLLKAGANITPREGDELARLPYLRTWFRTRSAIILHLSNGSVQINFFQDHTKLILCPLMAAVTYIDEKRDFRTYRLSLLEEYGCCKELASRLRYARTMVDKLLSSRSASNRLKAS

| IC50 | SMILES |
| --- | --- |
| > 5000 nM | COc1cc(C(=O)O)ccc1Nc1ncc2c(n1)N([C@@H]1C[C@H]1c1ccccc1)CC(F)(F)C(=O)N2C (relative stereo) [Example I-287, 4-[7,7-difluoro-5-methyl-6-oxo-9-(trans-2-phenyl-cyclopropyl)-6,7,8,9-tetrahydro-5H-pyrimido[4,5-b][1,4]diazepin-2-ylamino]-3-methoxy-benzoic acid] |
| 51 to 500 nM | COc1cc(C(=O)NC2CCN(C)CC2)ccc1Nc1ncc2c(n1)N([C@@H]1C[C@H]1c1ccccc1)CC(F)(F)C(=O)N2C (relative stereo) [Example I-288, 4-[7,7-difluoro-5-methyl-6-oxo-9-(trans-2-phenyl-cyclopropyl)-6,7,8,9-tetrahydro-5H-pyrimido[4,5-b][1,4]diazepin-2-ylamino]-3-methoxy-N-(1-methyl-piperidin-4-yl)-benzamide] |
| > 5000 nM | COc1cc(C(N)=O)ccc1Nc1ncc2c(n1)N([C@@H]1C[C@H]1c1ccccc1)CC(F)(F)C(=O)N2C (relative stereo) [Example I-289, 4-[7,7-difluoro-5-methyl-6-oxo-9-(trans-2-phenyl-cyclopropyl)-6,7,8,9-tetrahydro-5H-pyrimido[4,5-b][1,4]diazepin-2-ylamino]-3-methoxy-benzamide] |
| 51 to 500 nM | COc1cc(C(=O)NCCCN(C)C)ccc1Nc1ncc2c(n1)N([C@@H]1C[C@H]1c1ccccc1)CC(F)(F)C(=O)N2C (relative stereo) [Example I-290, 4-[7,7-difluoro-5-methyl-6-oxo-9-(trans-2-phenyl-cyclopropyl)-6,7,8,9-tetrahydro-5H-pyrimido[4,5-b][1,4]diazepin-2-ylamino]-N-(3-dimethylamino-propyl)-3-methoxy-benzamide] |

Same assay, conditions: GST-PLK1, GST-p53 substrate, ATP

| SMILES | IC50 |
| --- | --- |
| COc1cc(C(=O)NC(C)c2ccccc2)ccc1Nc1ncc2c(n1)N(C1CCCC1)CC(F)(F)C(=O)N2C (racemic) [Example I-37, rac-4-(9-cyclopentyl-7,7-difluoro-5-methyl-6-oxo-6,7,8,9-tetrahydro-5H-pyrimido[4,5-b][1,4]diazepin-2-ylamino)-3-methoxy-N-(1-phenyl-ethyl)-benzamide] | 51 to 500 nM |
| COc1cc(C(=O)N[C@@H]2CCN(C(=O)OCc3ccccc3)C[C@H]2O)ccc1Nc1ncc2c(n1)N(C1CCCC1)CC(F)(F)C(=O)N2C (racemic) [Example I-54, rac-(3R,4R)-4-[4-(9-cyclopentyl-7,7-difluoro-5-methyl-6-oxo-6,7,8,9-tetrahydro-5H-pyrimido[4,5-b][1,4]diazepin-2-ylamino)-3-methoxy-benzoylamino]-3-hydroxy-piperidine-1-carboxylic acid benzyl ester] | 51 to 500 nM |
| COc1cc(C(=O)N[C@H]2CN(C(=O)OCc3ccccc3)CC[C@@H]2OC)ccc1Nc1ncc2c(n1)N(C1CCCC1)CC(F)(F)C(=O)N2C (racemic) [Example I-58, rac-(3S,4S)-3-[4-(9-cyclopentyl-7,7-difluoro-5-methyl-6-oxo-6,7,8,9-tetrahydro-5H-pyrimido[4,5-b][1,4]diazepin-2-ylamino)-3-methoxy-benzoylamino]-4-methoxy-piperidine-1-carboxylic acid benzyl ester] | 51 to 500 nM |
| COc1cc(C(=O)O)ccc1Nc1ncc2c(n1)N(C1CCC1)CC(F)(F)C(=O)N2C [Example I-1, 4-(9-cyclobutyl-7,7-difluoro-5-methyl-6-oxo-6,7,8,9-tetrahydro-5H-pyrimido[4,5-b][1,4]diazepin-2-ylamino)-3-methoxy-benzoic acid] | 1 to 50 nM |
| COc1cc(C(=O)NCCCN(C)C)ccc1Nc1ncc2c(n1)N(C1CCC1)CC(F)(F)C(=O)N2C [Example I-9, 4-(9-cyclobutyl-7,7-difluoro-5-methyl-6-oxo-6,7,8,9-tetrahydro-5H-pyrimido[4,5-b][1,4]diazepin-2-ylamino)-N-(3-dimethylamino-propyl)-3-methoxy-benzamide] | 1 to 50 nM |
| CN1C(=O)C(F)(F)CN(C2CCC2)c2nc(Nc3ccc(C(=O)O)cc3)ncc21 [Example I-11, 4-(9-cyclobutyl-7,7-difluoro-5-methyl-6-oxo-6,7,8,9-tetrahydro-5H-pyrimido[4,5-b][1,4]diazepin-2-ylamino)-benzoic acid] | 51 to 500 nM |
| CN1C(=O)C(F)(F)CN(C2CCC2)c2nc(Nc3ccc(C(N)=O)cc3)ncc21 [Example I-12, 4-(9-cyclobutyl-7,7-difluoro-5-methyl-6-oxo-6,7,8,9-tetrahydro-5H-pyrimido[4,5-b][1,4]diazepin-2-ylamino)-benzamide] | 51 to 500 nM |

Now from value to compound:

| IC50 | SMILES |
| --- | --- |
| 51 to 500 nM | COc1cc(C(=O)N[C@@H]2CCN(C(=O)OCc3ccccc3)C[C@H]2OC)ccc1Nc1ncc2c(n1)N(C1CCCC1)CC(F)(F)C(=O)N2C (racemic) [Example I-55, rac-(3R,4R)-4-[4-(9-cyclopentyl-7,7-difluoro-5-methyl-6-oxo-6,7,8,9-tetrahydro-5H-pyrimido[4,5-b][1,4]diazepin-2-ylamino)-3-methoxy-benzoylamino]-3-methoxy-piperidine-1-carboxylic acid benzyl ester] |
| 1 to 50 nM | COc1cc(C(=O)N[C@@H]2CCN(C(=O)OC(C)(C)C)C[C@@H]2OC)ccc1Nc1ncc2c(n1)N(C1CCCC1)CC(F)(F)C(=O)N2C (racemic) [Example I-56, rac-(3S,4R)-4-[4-(9-cyclopentyl-7,7-difluoro-5-methyl-6-oxo-6,7,8,9-tetrahydro-5H-pyrimido[4,5-b][1,4]diazepin-2-ylamino)-3-methoxy-benzoylamino]-3-methoxy-piperidine-1-carboxylic acid tert-butyl ester] |
| 1 to 50 nM | COc1cc(C(=O)N[C@@H]2CCNC[C@@H]2OC)ccc1Nc1ncc2c(n1)N(C1CCCC1)CC(F)(F)C(=O)N2C (racemic) [Example I-57, rac-(3S,4R)-4-(9-cyclopentyl-7,7-difluoro-5-methyl-6-oxo-6,7,8,9-tetrahydro-5H-pyrimido[4,5-b][1,4]diazepin-2-ylamino)-3-methoxy-N-(3-methoxy-piperidin-4-yl)-benzamide] |
| 1 to 50 nM | COc1cc(C(N)=O)ccc1Nc1ncc2c(n1)N(C1CCC1)CC(F)(F)C(=O)N2C [Example I-2, 4-(9-cyclobutyl-7,7-difluoro-5-methyl-6-oxo-6,7,8,9-tetrahydro-5H-pyrimido[4,5-b][1,4]diazepin-2-ylamino)-3-methoxy-benzamide] |
| 1 to 50 nM | CNC(=O)c1ccc(Nc2ncc3c(n2)N(C2CCC2)CC(F)(F)C(=O)N3C)c(OC)c1 [Example I-3, 4-(9-cyclobutyl-7,7-difluoro-5-methyl-6-oxo-6,7,8,9-tetrahydro-5H-pyrimido[4,5-b][1,4]diazepin-2-ylamino)-3-methoxy-N-methyl-benzamide] |
| 1 to 50 nM | COc1cc(C(=O)NC2CCN(C)CC2)ccc1Nc1ncc2c(n1)N(C1CCC1)CC(F)(F)C(=O)N2C [Example I-4, 4-(9-cyclobutyl-7,7-difluoro-5-methyl-6-oxo-6,7,8,9-tetrahydro-5H-pyrimido[4,5-b][1,4]diazepin-2-ylamino)-3-methoxy-N-(1-methyl-piperidin-4-yl)-benzamide] |
| 1 to 50 nM | COc1cc(C(=O)NC2CCNCC2)ccc1Nc1ncc2c(n1)N(C1CCC1)CC(F)(F)C(=O)N2C [Example I-5, 4-(9-cyclobutyl-7,7-difluoro-5-methyl-6-oxo-6,7,8,9-tetrahydro-5H-pyrimido[4,5-b][1,4]diazepin-2-ylamino)-3-methoxy-N-piperidin-4-yl-benzamide] |
| 51 to 500 nM | COc1cc(C(=O)N2CCC(N)CC2)ccc1Nc1ncc2c(n1)N(C1CCC1)CC(F)(F)C(=O)N2C [Example I-6, 2-[4-(4-amino-piperidine-1-carbonyl)-2-methoxy-phenylamino]-9-cyclobutyl-7,7-difluoro-5-methyl-5,7,8,9-tetrahydro-pyrimido[4,5-b][1,4]diazepin-6-one] |
| 1 to 50 nM | COc1cc(C(=O)NC2CCOCC2)ccc1Nc1ncc2c(n1)N(C1CCC1)CC(F)(F)C(=O)N2C [Example I-7, 4-(9-cyclobutyl-7,7-difluoro-5-methyl-6-oxo-6,7,8,9-tetrahydro-5H-pyrimido[4,5-b][1,4]diazepin-2-ylamino)-3-methoxy-N-(tetrahydro-pyran-4-yl)-benzamide] |
| 1 to 50 nM | COc1cc(C(=O)NCCN(C)C)ccc1Nc1ncc2c(n1)N(C1CCC1)CC(F)(F)C(=O)N2C [Example I-8, 4-(9-cyclobutyl-7,7-difluoro-5-methyl-6-oxo-6,7,8,9-tetrahydro-5H-pyrimido[4,5-b][1,4]diazepin-2-ylamino)-N-(2-dimethylamino-ethyl)-3-methoxy-benzamide] |
| 1 to 50 nM | CCN1CCC(NC(=O)c2ccc(Nc3ncc4c(n3)N(C3CCC3)CC(F)(F)C(=O)N4C)c(OC)c2)CC1 [Example I-10, 4-(9-cyclobutyl-7,7-difluoro-5-methyl-6-oxo-6,7,8,9-tetrahydro-5H-pyrimido[4,5-b][1,4]diazepin-2-ylamino)-N-(1-ethyl-piperidin-4-yl)-3-methoxy-benzamide] |
| 51 to 500 nM | CNC(=O)c1ccc(Nc2ncc3c(n2)N(C2CCC2)CC(F)(F)C(=O)N3C)cc1 [Example I-13, 4-(9-cyclobutyl-7,7-difluoro-5-methyl-6-oxo-6,7,8,9-tetrahydro-5H-pyrimido[4,5-b][1,4]diazepin-2-ylamino)-N-methyl-benzamide] |
| 1 to 50 nM | CN1C(=O)C(F)(F)CN(C2CCC2)c2nc(Nc3ccc(C(=O)NC4CCNCC4)cc3)ncc21 [Example I-14, 4-(9-cyclobutyl-7,7-difluoro-5-methyl-6-oxo-6,7,8,9-tetrahydro-5H-pyrimido[4,5-b][1,4]diazepin-2-ylamino)-N-piperidin-4-yl-benzamide] |
